Literature values in patent US20120220783A1, “SALTS OF SUNITINIB” (RANBAXY LABORATORIES LIMITED, priority 2009, published 2012).

Conditions: crystalline form, statement of WO 2009/104021

Compound: CCN(CC)CCNC(=O)c1c(C)[nH]c(/C=C2\C(=O)Nc3ccc(F)cc32)c1C.O=C(O)C[C@H](O)C(=O)O [Form II of sunitinib L-malate, butanedioic acid, hydroxy-, (2S)-, compound with N-[2-(diethylamino)ethyl]-5-[(Z)-(5-fluoro-1,2-dihydro-2-oxo-3H-indol-3-ylidine)methyl]-2,4-dimethyl-1H-pyrrole-3-carboxamide (1:1)]
- thermodynamic stability / form conversion (appears to readily convert to Form I): thermodynamically unstable
- hygroscopicity: hygroscopic
